We go through 1 molecule from US20230322805A1, “NOVEL PYRIMIDODIAZEPINE DERIVATIVES OR USES THEREOF” (SPARK BIOPHARMA, INC., priority 2020, published 2023).

Assay [1] addresses T1, DNAJC3 (Homo sapiens, UniProt Q13217).
T1 sequence (Q13217 32-504): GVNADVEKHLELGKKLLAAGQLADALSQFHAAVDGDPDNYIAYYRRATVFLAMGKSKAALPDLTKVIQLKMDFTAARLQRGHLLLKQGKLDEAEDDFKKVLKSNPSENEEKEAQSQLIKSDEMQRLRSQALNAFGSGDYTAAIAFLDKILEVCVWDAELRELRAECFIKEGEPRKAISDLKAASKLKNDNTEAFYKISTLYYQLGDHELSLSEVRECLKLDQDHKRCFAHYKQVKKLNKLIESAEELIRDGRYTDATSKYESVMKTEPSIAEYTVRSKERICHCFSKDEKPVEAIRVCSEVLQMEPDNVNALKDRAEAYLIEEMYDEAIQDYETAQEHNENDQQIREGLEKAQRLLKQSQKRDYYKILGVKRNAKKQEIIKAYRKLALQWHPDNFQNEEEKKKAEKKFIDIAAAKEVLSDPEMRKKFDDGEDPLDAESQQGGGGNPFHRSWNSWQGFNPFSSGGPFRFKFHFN
Description: CETSA and pull-down assay with probe SB1624. More on the design: endogenous in cells; host or cells: HEK293 BiFC-tau cells (TS-FITGE, CETSA); SH-SY5Y cells (pull-down with probe SB1624). The following applies: CETSA 10 μM in HEK293 BiFC-tau cells; pull-down 5 μM SB1624 with or without 40 μM SB1617 in SH-SY5Y cells. The format is binding. The protocol: HEK293 BiFC-tau cells were treated with DMSO (0.1%) and a compound according to the present invention (10 μM) in the presence of thapsigargin (200 nM) for 3 hours. The cell suspension was heated at the indicated temperature range for 3 minutes and then at 25° C. for 3 minutes. The heated cells were washed with PBS and resuspended in Lysis Buffer A. For cell lysis, cell suspensions were freeze-thawed in liquid nitrogen three times. The cell lysate was washed by centrifugation at 20000 g, 4° C. for 20 minutes. Equal volumes of washed cell lysate were combined with SDS buffer and subjected to immunoblotting.
SH-SY5Y cells were seeded in 6-well plates and then treated with 1 μM thapsigargin and 5 μM SB1624 (probe compound) for 2.5 hours with or without 40 μM SB1617. Cells were exposed to 356 nm UV irradiation for 30 min on ice. After washing with cold PBS, cells were lysed in RIPA buffer and removed by centrifugation at […] for 15 minutes at 4° C. The protein concentration of the supernatant was determined by Pierce BCA Protein Assay Kit and the protein concentration was adjusted to 1 mg/mL. […] Proteins were eluted by boiling with 3×SDS sample buffer and analyzed by SDS-PAGE and Western blot. […]

Assay [2] relates to SOD1 (G93A). Description: Level of aggregation-prone mutant protein after treatment. The following applies: SB1617 treatment. Format: cell-based. From the text:
(§1) Plasmids pRK5-EGFP-Tau (#46904) and pRK-EGFP-Tau P301 L (#46908) were purchased from Addgene. Plasmids pCMV-SOD1-EGFP and pCMV-SOD1 G93A-EGFP were provided by Seoul National University College of Medicine. Plasmids were transfected in HEK293T cells using Lipofectamine and Opti-MEM (Gibco) based on the manufacturer's instructions. Short interfering RNA duplex (siRNA duplex, BIONEER) for PDIA3 and DNAJC3 was used for PDIA3 and DNAJC3 knockdown experiments. siRNA oligonucleotides were transfected in HEK293 cells stably expressing BiFC-tau using Lipofectamine RNAiMAX (ThermoFisher Scientific) and Opti-MEM (Gibco) based on the manufacturer's instructions.
(§2) 5-6. From the results of Test Examples 5-1 to 5-5, it was hypothesized that if SB1617, a pyrimidiazepine derivative from this invention, regulates protein homeostasis, it will be able to effectively control the level of other proteins that tend to be folded and accumulated incorrectly under ER stress conditions. To confirm this, changes in the level of other aggregation-oriented proteins according to SB1617 treatment were confirmed.
(§3) Tau P301 L is found in FTD patients with Parkinson's disease and is known to accelerate tau aggregation and accumulation in the mouse brain. Htt-Q74 refers to a polyglutamine dilated mutation that causes Huntington's disease. The SOD1 (G93A) mutation level is one of the clinical characteristics of ALS patients.

In assay [3] the test system is tau P301L. Described as above. The format is cell-based. The note with it: SB1617 treatment.
Text: as §1, §2, §3

Assay [4] relates to acute Alzheimer's mouse model. Nature of the assay: Acute Alzheimer's mouse model (acquisition and probe test). Format: in vivo. The protocol:
7-1. Potential therapeutic effect of SB1617 in an acute Alzheimer's mouse model was identified, and the design for the experiment is schematically shown in FIG. 40
7-3. As a result of confirming the treatment efficacy through a probe test, after removing the platform, it was performed by recording how many times the mouse passed the position where the platform was […]

For the molecule `CN(Cc1ccc(Cl)cc1)c1ncnc2c1[C@@H]1OC[C@H](CN2)N1S(=O)(=O)c1ccc([N+](=O)[O-])cc1` [Compound 117], the “specific binding (CETSA, pull-down)” value in assay [1] is given as “specifically binds”. In addition, in assay [2], the “mutation level of SOD (G93A)” value was “downregulated”. In assay [3], the “mutation level of tau P301L” value is given as “downregulated”. Further, the “learning ability (Acquisition test), rank order” value in assay [4] (acute Alzheimer's mouse model) is listed as “WT >Donepezil >SB-1617>Vehicle”. Besides, in assay [4] (compared to the vehicle), the “probe test, number of times of entering the SW quadrant space” value was “significantly higher value”; the “probe test, number of times passing the virtual platform” value is “significantly higher value”; the “probe test, time to reach the platform” value is “significantly lower value”. Also, the “probe test, percentage (%) of the time spent in the quadrant where the platform exists” value in assay [4] (mouse, in vivo) was “remembered the location of the platform well”.
